Data reported in paper PMC9511441, “Semisynthetic teicoplanin derivatives with dual antimicrobial activity against SARS-CoV-2 and multiresistant bacteria” (Scientific Reports, 2022).
≈ marks a conversion by molar mass, not a printed value. Like-named read-outs stand apart in the source and are kept apart here.

Legend:
VeroE6 cells = experiment: Cytotoxicity in mock-infected VeroE6 cells (XTT); type: cell-based, African green monkey; settings: mock-infected Vero E6 cells, three days, XTT
SARS-CoV-2 pseudovirus [1] = experiment: microbe, parasite or virus in culture; type: cell-based; settings: A549-AT cells, TMPRSS2-mediated uptake
[2] = target: T1, human recombinant cathepsin L (Homo sapiens, UniProt P07711); experiment: biochemical; type: biochemical
T1 construct: made in house; host or cells: Escherichia coli
T1 sequence (P07711 114-333): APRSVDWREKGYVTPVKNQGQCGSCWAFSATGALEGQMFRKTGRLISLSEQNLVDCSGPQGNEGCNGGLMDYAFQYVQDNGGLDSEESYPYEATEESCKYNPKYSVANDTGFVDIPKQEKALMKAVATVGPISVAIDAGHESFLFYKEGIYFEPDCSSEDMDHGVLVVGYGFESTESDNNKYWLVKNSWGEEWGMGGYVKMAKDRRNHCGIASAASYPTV
Description: Cathepsin L inhibition was assessed as reported. Briefly, human recombinant cathepsin L was expressed in Escherichia coli[33]. Enzymatic activity was determined in 100 mM acetate buffer (pH 5.5) containing 0.1% PEG 8000, 5 mM cysteine and 1.5 mM EDTA. The enzyme was first activated in assay buffer for 5 min at 37 °C, after which it was added to the wells of a black microplate containing the Z-Phe-Arg-AMC substrate (Bachem) and compounds. Formation of the fluorescent cleavage product was monitored for 50 min at 37 °C, using a Tecan Infinit M1000 spectrofluorimeter set at 460 nm emission and 380 nm excitation wavelength. All assay mixtures contained 5% (v/v) DMSO and 0.01% Triton X-100 to prevent false-positive inhibition due to formation of compound aggregates. All measurements were performed in triplicate and repeated twice. The relative inhibition was calculated using the equation: Relative inhibition (%) = 100(1 − vi/vo), where vi and vo designate the reaction velocities in the presence and absence of inhibitor, respectively. IC50 values were determined from nine data points at different inhibitor concentrations.

HEL cells = experiment: Cytotoxicity in mock-infected HEL cells (MTS); type: cell-based, human; settings: mock-infected HEL cells, MTS, mean of 2–3 tests
Calu-3 cells = experiment: Cytotoxicity in mock-infected Calu-3 cells (XTT); settings: read-out: CC50, Calu-3 cells, three days
SARS-CoV-2 pseudovirus [3] = experiment: microbe, parasite or virus in culture; type: cell-based; settings: cathepsin-dependent endosomal pathway
S. haemolyticus = experiment: MIC, broth microdilution; type: cell-based; settings: Staphylococcus haemolyticus
Source text: (§1) We determined the minimal inhibitory concentrations (MIC) of the teicoplanin conjugates for a large panel of Gram-positive bacterial strains, using vancomycin, unmodified teicoplanin, dalbavancin and oritavancin as reference compounds. […] The bacterial strains (see Suppl. Table S5 for all details) were selected to achieve maximum diversity of multidrug-resistance and include strains with known mechanisms of resistance to glycopeptides in clinical use. The S. epidermidis and S. haemolyticus strains resistant to dalbavancin and oritavancin were obtained in vitro from clinical isolates sensitive to the glycopeptide antibiotics.

E. faecalis = experiment: MIC, broth microdilution; type: cell-based; settings: Enterococcus faecalis
Source text: as §1

S. aureus = experiment: MIC, broth microdilution; type: cell-based; settings: Staphylococcus aureus
Source text: as §1

S.pyogenes = experiment: MIC, broth microdilution; type: cell-based; settings: Streptococcus pyogenes
Source text: as §1

S. epidermidis = experiment: microbe, parasite or virus in culture; type: cell-based; settings: Staphylococcus epidermidis
Source text: as §1

E. faecium = experiment: microbe, parasite or virus in culture; type: cell-based; settings: Enterococcus faecium
Source text: as §1

[4] = Cytotoxicity in mock-infected VeroE6 cells (XTT); type: cell-based, African green monkey; settings: African green monkey; for CC50: mock-infected Vero E6 cells, three days, XTT
SARS-CoV-2 = experiment: microbe, parasite or virus in culture; type: cell-based; settings: for EC50: Severe acute respiratory syndrome coronavirus 2, Vero C1008, 72 h, Vero E6 cells, three days, XTT, read-out: EC50, CPE reduction, SARS-CoV-2 in Vero E6 cells
[5] = test system: Klebsiella pneumoniae ST258 clone K 160/09; experiment: MIC against Gram-negative strain; settings: Klebsiella pneumoniae
[6] = test system: Acinetobacter baumannii ATCC BAA1605; experiment: MIC against Gram-negative strain; settings: Acinetobacter baumannii, ATCCBAA1605
[7] = test system: Pseudomonas aeruginosa ATCC 27853; experiment: MIC against Gram-negative strain; settings: ATCC27853
[8] = test system: Escherichia coli ATCC 25218; experiment: MIC against Gram-negative strain; settings: ATCC25218
[9] = read-out: Cathepsin L IC50, pH 5.5, Z-Phe-Arg-AMC substrate

CCCCCCCCOC1C(OC)OC(COCCOCCOCCOCCOCc2cn(C3C(=O)NC4Cc5ccc(c(Cl)c5)Oc5cc6cc(c5O)Oc5ccc(cc5Cl)C(OC5OC(CO)C(O)C(O)C5NC(C)=O)C5NC(=O)C(NC(=O)C6NC(=O)C(NC4=O)c4cc(O)cc(c4)Oc4cc3ccc4O)c3ccc(O)c(c3)-c3c(O)cc(O)cc3C(C(=O)O)NC5=O)nn2)C(O)C1OCCCCCCCC (stereo not drawn) [Compound 1]
CC50 (VeroE6 cells): > 100 µM
Inhibition of pseudovirus entry in A549-AT cells (in words) (SARS-CoV-2 pseudovirus [1]): active, though less potent
IC50 [2, 9]: 49 ± 1 µM
CC50 (HEL cells): > 100 µM
CC50 (Calu-3 cells): 75 ± 9 µM
Inhibition of pseudovirus entry in Vero cells (in words) (SARS-CoV-2 pseudovirus [3]): highly effective

CC(=O)N[C@H]1[C@H](O[C@@H]2c3ccc(c(Cl)c3)Oc3cc4cc(c3O)Oc3ccc(cc3Cl)C[C@H]3NC(=O)[C@H](NC(=O)CCC(F)(F)C(F)(F)C(F)(F)C(F)(F)C(F)(F)C(F)(F)C(F)(F)C(F)(F)F)c5ccc(O)c(c5)Oc5cc(O)cc(c5)[C@H](NC3=O)C(=O)N[C@H]4C(=O)N[C@H]3C(=O)N[C@@H]2C(=O)N[C@H](C(=O)O)c2cc(O)cc(O)c2-c2cc3ccc2O)O[C@H](CO)[C@@H](O)[C@@H]1O [Compound 5]
MIC (S. haemolyticus; S. haemolyticus mecA, 6 strains, read-out: Average MIC value): 7 µg/mL (≈ 3.73 µM)
MIC (S. haemolyticus; S.haemolyticus DALB_R1, mecA, read-out: MIC value): 8 µg/mL (≈ 4.26 µM)
MIC (S. haemolyticus; S.haemolyticus DALB_R2, mecA, read-out: MIC value): 8 µg/mL (≈ 4.26 µM)
MIC (S. haemolyticus; S.haemolyticus DALB_R3, mecA, read-out: MIC value): 8 µg/mL (≈ 4.26 µM)
MIC (S. haemolyticus; S.haemolyticus DALB_R4, mecA, read-out: MIC value): 8 µg/mL (≈ 4.26 µM)
MIC (S. haemolyticus; S.haemolyticus DALB_R5, mecA, read-out: MIC value): 2 µg/mL (≈ 1.07 µM)
MIC (S. haemolyticus; S.haemolyticus ORI_R1, mecA, read-out: MIC value): 8 µg/mL (≈ 4.26 µM)
MIC (E. faecalis; read-out: Average MIC value, E. faecalis VAN^R,TEI^R/VanA, 1 strain): > 8 µg/mL
MIC (E. faecalis; read-out: Average MIC value, E. faecalis VAN^S, TEI^S, 2 strains): 0.25 µg/mL (≈ 0.133 µM)
MIC (E. faecalis; read-out: MIC value, E.faecalis JH2-2): 0.25 µg/mL (≈ 0.133 µM)
MIC (E. faecalis; read-out: MIC value, E.faecalis OG1RF): 0.25 µg/mL (≈ 0.133 µM)
MIC (E. faecalis; read-out: MIC value, E.faecalis V583, VAN,TEI/VanA): > 8 µg/mL
MIC (S. aureus; ATCC 29213 / MSSA, read-out: MIC value, S. aureus ATCC29213, MSSA): 1 µg/mL (≈ 0.533 µM)
MIC (S. aureus; MRSA / USA300, read-out: MIC value, S. aureus USA300, CA-MRSA): 4 µg/mL (≈ 2.13 µM)
MIC (S. aureus; MRSA, read-out: Average MIC value, S. aureus CA-MRSA, 1 strain): 4 µg/mL (≈ 2.13 µM)
MIC (S. aureus; MRSA, read-out: Average MIC value, S. aureus MRSA, 7 strains): 2.57 µg/mL (≈ 1.37 µM)
MIC (S. aureus; MRSA, read-out: MIC value, S. aureus 73OL, MRSA): 2 µg/mL (≈ 1.07 µM)
MIC (S. aureus; MRSA, read-out: MIC value, S. aureus 214OL, MRSA): 4 µg/mL (≈ 2.13 µM)
MIC (S. aureus; MRSA, read-out: MIC value, S. aureus 1041OL, MRSA): 4 µg/mL (≈ 2.13 µM)
MIC (S. aureus; MRSA, read-out: MIC value, S. aureus A6918, MRSA): 2 µg/mL (≈ 1.07 µM)
MIC (S. aureus; MRSA, read-out: MIC value, S. aureus A6919, MRSA): 2 µg/mL (≈ 1.07 µM)
MIC (S. aureus; MRSA, read-out: MIC value, S. aureus Mu50, MRSA): 2 µg/mL (≈ 1.07 µM)
MIC (S. aureus; MRSA, read-out: MIC value, S. aureus N315, MRSA): 2 µg/mL (≈ 1.07 µM)
MIC (S. aureus; MSSA / NEWMAN, read-out: MIC value, S. aureus Newman, MSSA): 2 µg/mL (≈ 1.07 µM)
MIC (S. aureus; MSSA, read-out: Average MIC value, S. aureus MSSA, 4 strains): 1.75 µg/mL (≈ 0.933 µM)
MIC (S. aureus; MSSA, read-out: MIC value, S. aureus MSSA476, MSSA): 2 µg/mL (≈ 1.07 µM)
MIC (S. aureus; MSSA, read-out: MIC value, S. aureus SA564, MSSA): 2 µg/mL (≈ 1.07 µM)
MIC (S.pyogenes; read-out: MIC value, S.pyogenes H232): 0.25 µg/mL (≈ 0.133 µM)
MIC (S.pyogenes; read-out: MIC value, S.pyogenes H550): 0.25 µg/mL (≈ 0.133 µM)
MIC (S.pyogenes; read-out: MIC value, S.pyogenes H578): 0.25 µg/mL (≈ 0.133 µM)
CC50 (VeroE6 cells): > 100 µM
MIC (S. epidermidis; read-out: Average MIC value, S. epidermidis mecA, 6 strains): 1.4 µg/mL (≈ 0.746 µM)
MIC (S. epidermidis; read-out: MIC value, S.epidermidis ORI_R1, mecA): 4 µg/mL (≈ 2.13 µM)
MIC (S. epidermidis; read-out: MIC value, S.epidermidis ORI_R2, mecA): 1 µg/mL (≈ 0.533 µM)
MIC (S. epidermidis; read-out: MIC value, S.epidermidis ORI_R3, mecA): 2 µg/mL (≈ 1.07 µM)
MIC (S. epidermidis; read-out: MIC value, S.epidermidis ORI_R4, mecA): 0.5 µg/mL (≈ 0.266 µM)
MIC (S. epidermidis; read-out: MIC value, S.epidermidis TEI_R1, mecA): 0.5 µg/mL (≈ 0.266 µM)
MIC (S. epidermidis; read-out: MIC value, S.epidermidis TEI_R2, mecA): 0.5 µg/mL (≈ 0.266 µM)
MIC (E. faecium; read-out: Average MIC value, E. faecium VAN^R,TEI^R/VanA, 8 strains): > 8 µg/mL
MIC (E. faecium; read-out: Average MIC value, E. faecium VAN^S, TEI^S, 1 strain): 0.25 µg/mL (≈ 0.133 µM)
MIC (E. faecium; read-out: MIC value, E.faecium E335, VAN,TEI,LNZ/VanA): > 8 µg/mL
MIC (E. faecium; read-out: MIC value, E.faecium E355, VAN,TEI,LNZ/VanA): > 8 µg/mL
MIC (E. faecium; read-out: MIC value, E.faecium E832, VAN,TEI,LNZ/VanA): > 8 µg/mL
MIC (E. faecium; read-out: MIC value, E.faecium E854, VAN,TEI,LNZ/VanA): > 8 µg/mL
MIC (E. faecium; read-out: MIC value, E.faecium E859, VAN,TEI,LNZ/VanA): > 8 µg/mL
MIC (E. faecium; read-out: MIC value, E.faecium E1114, VAN,TEI,LNZ/VanA): > 8 µg/mL
MIC (E. faecium; read-out: MIC value, E.faecium E1131, VAN,TEI,LNZ/VanA): > 8 µg/mL
MIC (E. faecium; read-out: MIC value, E.faecium E1132, VAN,TEI,LNZ/VanA): > 8 µg/mL
MIC (E. faecium; read-out: MIC value, E.faecium TX0016): 0.25 µg/mL (≈ 0.133 µM)
IC50 [2, 9]: 52 ± 1 µM
CC50 (HEL cells): > 100 µM
CC50 (Calu-3 cells): > 100 µM

OCCCC(F)(F)C(F)(F)C(F)(F)C(F)(F)C(F)(F)C(F)(F)F [Compound 9]
CC50 [4]: > 100 µM
EC50 (SARS-CoV-2): > 100 µM
Reduction of the CPE of SARS-CoV-2 in VeroE6 cells (in words) (SARS-CoV-2): not active

OCCCC(F)(F)C(F)(F)C(F)(F)C(F)(F)C(F)(F)C(F)(F)C(F)(F)C(F)(F)F [Compound 13]
CC50 [4]: > 100 µM
EC50 (SARS-CoV-2): > 100 µM
Reduction of the CPE of SARS-CoV-2 in VeroE6 cells (in words) (SARS-CoV-2): not active

N=C(N)NCCSCCCOc1cc(C(=O)OCc2ccccc2)cc(OCCCSCCNC(=N)N)c1OCCCSCCNC(=N)N [Compound 24]
CC50 at 3 days [4]: 33.2 µM
MIC [5]: 128 µg/mL (≈ 173 µM)
IC50 [2]: 18 ± 1 µM
EC50 (SARS-CoV-2): > 100 µM
Reduction of the CPE of SARS-CoV-2 in VeroE6 cells (in words) (SARS-CoV-2): not active
MIC [6]: 25.6 µg/mL (≈ 34.7 µM)
MIC [7]: 25.6 µg/mL (≈ 34.7 µM)
MIC [8]: 3.2 µg/mL (≈ 4.34 µM)
